Data reported in the CheMixHub viscosity set.
Values joined by “and” are separate entries in the source; they are usually repeats but may differ in a detail not shown here. Identical values can stand only once.

Experiment: xn = mol fraction of the nth substance listed

CCOC(=O)CCl + Cc1ccc(C)cc1
viscosity [mPa·s], 101.3 kPa
Conditions | x1 = 0.0994 | x1 = 0.1995 | x1 = 0.3008 | x1 = 0.3992 | x1 = 0.5001 | x1 = 0.601 | x1 = 0.6994 | x1 = 0.7968 | x1 = 0.8943
298.15 K | 0.635 | 0.663 | 0.699 | 0.735 | 0.783 | 0.832 | 0.886 | 0.949 | 1.017
303.15 K | 0.599 | 0.624 | 0.656 | 0.691 | 0.734 | 0.778 | 0.827 | 0.882 | 0.945
308.15 K | 0.563 | 0.586 | 0.615 | 0.646 | 0.686 | 0.726 | 0.768 | 0.816 | 0.874

CCCCOCCO + Cc1cccc(C)c1
viscosity [mPa·s], 101 kPa
Conditions | 298.15 K | 308.15 K
x1 = 0.056 | 0.625 | 0.534
x1 = 0.152 | 0.711 | 0.602
x1 = 0.2496 | 0.813 | 0.686
x1 = 0.3506 | 0.941 | 0.786
x1 = 0.4512 | 1.095 | 0.908
x1 = 0.5022 | 1.185 | 0.979
x1 = 0.5529 | 1.284 | 1.056
x1 = 0.6487 | 1.501 | 1.225
x1 = 0.7505 | 1.781 | 1.442
x1 = 0.8511 | 2.122 | 1.704
x1 = 0.9549 | 2.56 | 2.037

CCCCCCCCN(CCCCCCCC)CCCCCCCC + Cc1ccccc1
298.15 K, 101.33 kPa
Conditions | viscosity [mPa·s]
x1 = 0.015 | 0.595
x1 = 0.033 | 0.646
x1 = 0.075 | 0.775
x1 = 0.231 | 1.405

CCCCOCCO + Cc1ccccc1
viscosity [mPa·s], 101 kPa
Conditions | 298.15 K | 308.15 K
x1 = 0.055 | 0.593 | 0.531
x1 = 0.1509 | 0.678 | 0.597
x1 = 0.2513 | 0.784 | 0.679
x1 = 0.3489 | 0.909 | 0.775
x1 = 0.4511 | 1.066 | 0.896
x1 = 0.5015 | 1.156 | 0.965
x1 = 0.5525 | 1.257 | 1.042
x1 = 0.6512 | 1.483 | 1.215
x1 = 0.7494 | 1.759 | 1.425
x1 = 0.8498 | 2.105 | 1.689
x1 = 0.9541 | 2.551 | 2.03

CCOC(=O)CCl + Cc1ccccc1
viscosity [mPa·s], 101.3 kPa
Conditions | x1 = 0.1004 | x1 = 0.207 | x1 = 0.299 | x1 = 0.4013 | x1 = 0.5048 | x1 = 0.6083 | x1 = 0.6963 | x1 = 0.8022 | x1 = 0.9006
298.15 K | 0.594 | 0.631 | 0.671 | 0.714 | 0.768 | 0.823 | 0.878 | 0.945 | 1.02
303.15 K | 0.561 | 0.594 | 0.63 | 0.669 | 0.719 | 0.77 | 0.818 | 0.881 | 0.947
308.15 K | 0.528 | 0.559 | 0.59 | 0.626 | 0.671 | 0.718 | 0.758 | 0.817 | 0.873

O=C(OCc1ccccc1)c1ccccc1 + Cc1ccccc1
298.15 K, 101 kPa
Conditions | viscosity [mPa·s]
x1 = 0.2369 | 1.183
x1 = 0.4262 | 2.015
x1 = 0.6505 | 3.614
x1 = 0.789 | 5.08
x1 = 0.9002 | 6.66

c1ccc2c(c1)CCCC2 + Cc1ccccc1
101.3 kPa
Conditions | viscosity
298 K, x2 = 0.2 | 1.55 mPa·s
298.1 K, x2 = 0.4 | 1.133 mPa·s
298.2 K, x2 = 0.6 | 0.9208 mPa·s
298.2 K, x2 = 0.8 | 0.7036 mPa·s
303.2 K, x2 = 0.5 | 0.9625 mPa·s
308.2 K, x2 = 0.4 | 0.9772 mPa·s
308.2 K, x2 = 0.6 | 0.8034 mPa·s
308.2 K, x2 = 0.8 | 0.6177 mPa·s and 0.6155 mPa·s
313.1 K, x2 = 0.2 | 1.209 mPa·s
313.1 K, x2 = 0.5 | 0.8373 mPa·s
318.1 K, x2 = 0.4 | 0.8532 mPa·s
318.2 K, x2 = 0.6 | 0.7034 mPa·s
318.2 K, x2 = 0.8 | 0.553 mPa·s
323.1 K, x2 = 0.5 | 0.7376 mPa·s

CCCCOCCO + Cc1ccccc1C
viscosity [mPa·s], 101 kPa
Conditions | 298.15 K | 308.15 K
x1 = 0.0549 | 0.797 | 0.686
x1 = 0.1475 | 0.891 | 0.756
x1 = 0.2508 | 1.004 | 0.84
x1 = 0.3485 | 1.129 | 0.933
x1 = 0.4527 | 1.286 | 1.052
x1 = 0.5 | 1.366 | 1.113
x1 = 0.5489 | 1.457 | 1.182
x1 = 0.6483 | 1.666 | 1.341
x1 = 0.7518 | 1.925 | 1.54
x1 = 0.8493 | 2.216 | 1.765
x1 = 0.9524 | 2.586 | 2.053
